HELM strings list units from the 5' end as sugar, base in round brackets, then linkage (d deoxyribose, r ribose, m 2'-O-methyl, p phosphodiester). Strings are as the collection lists them; they lack the last nucleoside at the 3' end of the tested compound. [moe] = 2'-O-(2-methoxyethyl) (MOE); [sp] = phosphorothioate linkage; [m5C] = 5-methylcytosine

The data set addresses SCN2A. The experiment in a line: mouse, dose not given. The settings on record: ASO.
With “RNA1{[moe]([m5C])[sp].[moe]([m5C])p.[moe](A)p.[moe](G)p.[moe](T)p.d(T)[sp].d(T)[sp].d(T)[sp].d(T)[sp].d(T)[sp].d([m5C])[sp].d(A)[sp].d(T)[sp].d(T)[sp].d(G)[sp].[moe]([m5C])p.[moe](A)p.[moe](T)[sp].[moe]([m5C])}$$$$ (last 3' nucleoside missing)”, the 3 h FOB score stood at 1.33 score 0-7.

“RNA1{[moe]([m5C])[sp].[moe](T)p.[moe](G)p.[moe]([m5C])p.d(A)[sp].d(T)[sp].d(G)[sp].d(T)[sp].d(A)[sp].d(A)[sp].d([m5C])[sp].d([m5C])[sp].d(T)[sp].d(T)[sp].[moe](T)p.[moe](A)p.[moe](T)p.[moe](A)[sp].[moe]([m5C])}$$$$ (last 3' nucleoside missing)”: the 3 h FOB score amounted to 0 score 0-7.

In turn, “RNA1{[moe](G)[sp].[moe](A)p.[moe](G)p.[moe](A)p.[moe](G)p.d(A)[sp].d(T)[sp].d(T)[sp].d(G)[sp].d([m5C])[sp].d(T)[sp].d(T)[sp].d(T)[sp].d([m5C])[sp].d([m5C])[sp].[moe]([m5C])p.[moe](T)p.[moe](T)[sp].[moe](T)}$$$$ (last 3' nucleoside missing)” displayed a 3 h FOB score of 1.33 score 0-7.

In turn, “RNA1{[moe](G)[sp].[moe](T)p.[moe]([m5C])p.[moe](T)p.[moe]([m5C])p.[moe](T)p.d(T)[sp].d(T)[sp].d([m5C])[sp].d(T)[sp].d(T)[sp].d(A)[sp].d(T)[sp].d(T)[sp].d(T)[sp].d([m5C])[sp].[moe](T)p.[moe](G)[sp].[moe](T)}$$$$ (last 3' nucleoside missing)” gave a 3 h FOB score of 1 score 0-7.

Substance “RNA1{[moe]([m5C])[sp].[moe]([m5C])p.[moe](A)p.[moe](T)p.d(T)[sp].d(T)[sp].d([m5C])[sp].d(T)[sp].d(A)[sp].d(T)[sp].d(A)[sp].d(A)[sp].d([m5C])[sp].d(T)[sp].[moe]([m5C])p.[moe](A)p.[moe](G)p.[moe]([m5C])[sp].[moe](A)}$$$$ (last 3' nucleoside missing)” registered a 3 h FOB score of 0 score 0-7.

In the case of “RNA1{[moe](T)[sp].[moe](G)p.[moe](T)p.[moe](A)p.d(A)[sp].d([m5C])[sp].d([m5C])[sp].d(T)[sp].d(T)[sp].d(T)[sp].d(A)[sp].d(T)[sp].d(A)[sp].d([m5C])[sp].[moe](A)p.[moe](T)p.[moe](T)p.[moe](T)[sp].[moe](A)}$$$$ (last 3' nucleoside missing)”, the 3 h FOB score turned out to be 0 score 0-7.

“RNA1{[moe](T)[sp].[moe]([m5C])p.[moe](T)p.[moe](T)p.d(T)[sp].d([m5C])[sp].d(T)[sp].d(T)[sp].d(A)[sp].d(T)[sp].d(T)[sp].d(T)[sp].d([m5C])[sp].d(T)[sp].[moe](G)p.[moe](T)p.[moe](T)p.[moe](T)[sp].[moe]([m5C])}$$$$ (last 3' nucleoside missing)” returned a 3 h FOB score of 0 score 0-7.

As for “RNA1{[moe](G)[sp].[moe](A)p.[moe]([m5C])p.[moe]([m5C])p.[moe](G)p.d(A)[sp].d(A)[sp].d(T)[sp].d(T)[sp].d([m5C])[sp].d(T)[sp].d(A)[sp].d(T)[sp].d(T)[sp].d(T)[sp].[moe](T)p.[moe](A)p.[moe](T)[sp].[moe](A)}$$$$ (last 3' nucleoside missing)”, the 3 h FOB score is 1 score 0-7.

The substance “RNA1{[moe]([m5C])[sp].[moe](A)p.[moe](T)p.[moe](G)p.[moe](T)p.d(A)[sp].d(A)[sp].d([m5C])[sp].d([m5C])[sp].d(T)[sp].d(T)[sp].d(T)[sp].d(A)[sp].d(T)[sp].d(A)[sp].[moe]([m5C])p.[moe](A)p.[moe](T)[sp].[moe](T)}$$$$ (last 3' nucleoside missing)” gave a 3 h FOB score of 0 score 0-7.

For the substance “RNA1{[moe](G)[sp].[moe]([m5C])p.[moe](A)p.[moe](T)p.[moe](G)[sp].d(T)[sp].d(A)[sp].d(A)[sp].d([m5C])[sp].d([m5C])[sp].d(T)[sp].d(T)[sp].d(T)[sp].[moe](A)p.[moe](T)p.[moe](A)[sp].[moe]([m5C])}$$$$ (last 3' nucleoside missing)”, the 3 h FOB score came out at 0 score 0-7.

“RNA1{[moe](A)[sp].[moe](T)p.[moe]([m5C])p.[moe](A)p.[moe](T)p.d(G)[sp].d([m5C])[sp].d(A)[sp].d(T)[sp].d(A)[sp].d(A)[sp].d(T)[sp].d([m5C])[sp].d([m5C])[sp].d([m5C])[sp].[moe](A)p.[moe](T)p.[moe](T)[sp].[moe](A)}$$$$ (last 3' nucleoside missing)” yielded a 3 h FOB score of 0 score 0-7.

In turn, “RNA1{[moe](T)[sp].[moe]([m5C])p.[moe]([m5C])p.[moe](A)p.[moe]([m5C])p.d(G)[sp].d(A)[sp].d([m5C])[sp].d(A)[sp].d(T)[sp].d(A)[sp].d(T)[sp].d(T)[sp].d(T)[sp].d(T)[sp].[moe](T)p.[moe]([m5C])p.[moe](T)[sp].[moe](A)}$$$$ (last 3' nucleoside missing)” had a 3 h FOB score of 1.33 score 0-7.

Turning to “RNA1{[moe](T)[sp].[moe](G)p.[moe]([m5C])p.[moe](A)p.[moe](T)p.[moe](A)p.d(A)[sp].d(T)[sp].d([m5C])[sp].d([m5C])[sp].d([m5C])[sp].d(A)[sp].d(T)[sp].d(T)[sp].d(A)[sp].d(T)[sp].[moe](A)p.[moe]([m5C])[sp].[moe](A)}$$$$ (last 3' nucleoside missing)”, the 3 h FOB score turned out to be 0 score 0-7.

In the case of “RNA1{[moe]([m5C])[sp].[moe](A)p.[moe]([m5C])p.[moe](G)p.[moe]([m5C])p.[moe](T)p.d(T)[sp].d(A)[sp].d([m5C])[sp].d(A)[sp].d(T)[sp].d([m5C])[sp].d(A)[sp].d(A)[sp].d(A)[sp].d([m5C])[sp].[moe](A)p.[moe](T)[sp].[moe]([m5C])}$$$$ (last 3' nucleoside missing)”, the 3 h FOB score is 0 score 0-7.

As for “RNA1{[moe](T)[sp].[moe](G)p.[moe]([m5C])p.[moe](A)[sp].d(T)[sp].d(G)[sp].d(T)[sp].d(A)[sp].d(A)[sp].d([m5C])[sp].d([m5C])[sp].d(T)[sp].[moe](T)p.[moe](T)p.[moe](A)p.[moe](T)[sp].[moe](A)}$$$$ (last 3' nucleoside missing)”, the 3 h FOB score is 0 score 0-7.

“RNA1{[moe](T)[sp].[moe]([m5C])p.[moe](T)p.[moe](T)p.[moe](T)p.d([m5C])[sp].d(T)[sp].d(T)[sp].d(A)[sp].d(T)[sp].d(T)[sp].d(T)[sp].d([m5C])[sp].d(T)[sp].d(G)[sp].[moe](T)p.[moe](T)p.[moe](T)[sp].[moe]([m5C])}$$$$ (last 3' nucleoside missing)” returned a 3 h FOB score of 1.67 score 0-7.

Turning to “RNA1{[moe](G)[sp].[moe](T)p.[moe](A)p.[moe](A)p.d(T)[sp].d([m5C])[sp].d(A)[sp].d([m5C])[sp].d(T)[sp].d(T)[sp].d(T)[sp].d([m5C])[sp].d(A)[sp].d(T)[sp].[moe]([m5C])p.[moe]([m5C])p.[moe](A)p.[moe]([m5C])[sp].[moe](G)}$$$$ (last 3' nucleoside missing)”, the 3 h FOB score stood at 2 score 0-7.

“RNA1{[moe]([m5C])[sp].[moe](A)p.[moe](T)p.[moe](G)p.d([m5C])[sp].d(A)[sp].d(T)[sp].d(A)[sp].d(A)[sp].d(T)[sp].d([m5C])[sp].d([m5C])[sp].d([m5C])[sp].d(A)[sp].[moe](T)p.[moe](T)p.[moe](A)p.[moe](T)[sp].[moe](A)}$$$$ (last 3' nucleoside missing)” registered a 3 h FOB score of 0 score 0-7.

For the substance “RNA1{[moe]([m5C])[sp].[moe](A)p.[moe]([m5C])p.[moe](G)p.[moe]([m5C])p.d(T)[sp].d(T)[sp].d(A)[sp].d([m5C])[sp].d(A)[sp].d(T)[sp].d([m5C])[sp].d(A)[sp].d(A)[sp].d(A)[sp].[moe]([m5C])p.[moe](A)p.[moe](T)[sp].[moe]([m5C])}$$$$ (last 3' nucleoside missing)”, the 3 h FOB score was 0 score 0-7.

In turn, “RNA1{[moe]([m5C])[sp].[moe]([m5C])p.[moe](G)p.[moe](A)p.d(A)[sp].d(T)[sp].d(T)[sp].d([m5C])[sp].d(T)[sp].d(A)[sp].d(T)[sp].d(T)[sp].d(T)[sp].d(T)[sp].[moe](A)p.[moe](T)p.[moe](A)p.[moe](A)[sp].[moe](A)}$$$$ (last 3' nucleoside missing)” displayed a 3 h FOB score of 0 score 0-7.

Substance “RNA1{[moe](A)[sp].[moe](A)p.[moe](T)p.[moe](T)p.[moe]([m5C])p.d(T)[sp].d(A)[sp].d(T)[sp].d(T)[sp].d(T)[sp].d(T)[sp].d(A)[sp].d(T)[sp].d(A)[sp].d(A)[sp].[moe](A)p.[moe](T)p.[moe](G)[sp].[moe]([m5C])}$$$$ (last 3' nucleoside missing)” showed a 3 h FOB score of 0 score 0-7.

The substance “RNA1{[moe](G)[sp].[moe]([m5C])p.[moe](A)p.[moe](T)p.[moe](G)p.[moe](T)p.d(T)[sp].d(T)[sp].d(A)[sp].d(T)[sp].d([m5C])[sp].d(T)[sp].d(T)[sp].d(A)[sp].d(G)[sp].d(T)[sp].[moe](T)p.[moe]([m5C])[sp].[moe](T)}$$$$ (last 3' nucleoside missing)” showed a 3 h FOB score of 1.67 score 0-7.

“RNA1{[moe]([m5C])[sp].[moe](A)p.[moe](T)p.[moe](A)p.[moe](A)p.d(T)[sp].d([m5C])[sp].d([m5C])[sp].d([m5C])[sp].d(A)[sp].d(T)[sp].d(T)[sp].d(A)[sp].d(T)[sp].d(A)[sp].[moe]([m5C])p.[moe](A)p.[moe](A)[sp].[moe](A)}$$$$ (last 3' nucleoside missing)” showed a 3 h FOB score of 0 score 0-7.

Substance “RNA1{[moe](T)[sp].[moe](G)p.[moe]([m5C])p.[moe](A)p.d(T)[sp].d(A)[sp].d(A)[sp].d(T)[sp].d([m5C])[sp].d([m5C])[sp].d([m5C])[sp].d(A)[sp].d(T)[sp].d(T)[sp].[moe](A)p.[moe](T)p.[moe](A)p.[moe]([m5C])[sp].[moe](A)}$$$$ (last 3' nucleoside missing)” came in with a 3 h FOB score of 0 score 0-7.

The substance “RNA1{[moe](T)[sp].[moe](A)p.[moe](A)p.[moe](T)p.[moe]([m5C])p.d(A)[sp].d([m5C])[sp].d(T)[sp].d(T)[sp].d(T)[sp].d([m5C])[sp].d(A)[sp].d(T)[sp].d([m5C])[sp].d([m5C])[sp].[moe](A)p.[moe]([m5C])p.[moe](G)[sp].[moe](A)}$$$$ (last 3' nucleoside missing)” yielded a 3 h FOB score of 0 score 0-7.

The values above are taken from the OligoGym collection.
